We go through 6 molecules from US20190231751A1, “TREATMENT OF FIBROTIC DISORDERS WITH JUN N-TERMINAL KINASE INHIBITORS” (Imago Pharmaceuticals, Inc., priority 2016, published 2019).

Structures are written as SMILES. A value given as a limit tells only on which side of the number the result lay.

Holding throughout (format): biochemical
One test addresses JNK1 (Homo sapiens, UniProt P45983). As to the kind of experiment: In vitro JNK1 inhibition (Table 1). How it is done:
(§1) In vitro assays for the determination of JNK activities are known in the art and exemplary assay formats are described herein.
(§2) IC50 values in Table 1 were determined using the procedures as described in U.S. Pat. No. 8,450,353.

The target of another test is JNK2 (Homo sapiens, UniProt P45984). Nature of the test: In vitro JNK2 inhibition (Table 1). How it is done: as §1, §2
A further test has as its target JNK3 (Homo sapiens, UniProt P53779). As to the kind of experiment: In vitro JNK3 inhibition (Table 1). How it is done: as §1, §2

Sequence of JNK3 (P53779 whole entry, species assumed): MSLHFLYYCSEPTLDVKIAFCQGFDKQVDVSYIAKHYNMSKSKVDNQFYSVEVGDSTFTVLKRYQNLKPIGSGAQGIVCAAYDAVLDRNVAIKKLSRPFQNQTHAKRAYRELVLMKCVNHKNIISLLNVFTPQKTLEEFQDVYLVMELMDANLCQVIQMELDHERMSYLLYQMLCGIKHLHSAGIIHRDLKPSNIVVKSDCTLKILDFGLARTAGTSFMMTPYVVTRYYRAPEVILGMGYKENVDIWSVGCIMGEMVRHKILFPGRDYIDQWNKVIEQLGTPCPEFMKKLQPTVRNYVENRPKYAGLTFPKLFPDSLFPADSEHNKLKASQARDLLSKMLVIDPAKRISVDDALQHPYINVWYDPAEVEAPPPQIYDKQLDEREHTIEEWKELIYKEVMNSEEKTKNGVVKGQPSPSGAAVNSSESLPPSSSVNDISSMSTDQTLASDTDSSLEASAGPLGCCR
Sequence of JNK2 (P45984 whole entry, species assumed): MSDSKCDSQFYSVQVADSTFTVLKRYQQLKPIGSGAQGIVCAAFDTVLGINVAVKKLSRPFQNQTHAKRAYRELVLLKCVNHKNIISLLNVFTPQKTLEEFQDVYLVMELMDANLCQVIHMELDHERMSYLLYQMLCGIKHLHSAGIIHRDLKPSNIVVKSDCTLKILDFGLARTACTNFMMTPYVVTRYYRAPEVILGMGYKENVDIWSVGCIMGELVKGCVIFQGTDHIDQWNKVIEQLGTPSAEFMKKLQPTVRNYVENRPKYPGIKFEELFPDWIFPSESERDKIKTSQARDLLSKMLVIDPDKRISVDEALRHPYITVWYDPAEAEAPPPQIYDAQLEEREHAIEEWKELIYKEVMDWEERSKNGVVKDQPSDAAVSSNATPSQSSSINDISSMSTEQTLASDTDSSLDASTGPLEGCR
Sequence of JNK1 (P45983 whole entry, species assumed): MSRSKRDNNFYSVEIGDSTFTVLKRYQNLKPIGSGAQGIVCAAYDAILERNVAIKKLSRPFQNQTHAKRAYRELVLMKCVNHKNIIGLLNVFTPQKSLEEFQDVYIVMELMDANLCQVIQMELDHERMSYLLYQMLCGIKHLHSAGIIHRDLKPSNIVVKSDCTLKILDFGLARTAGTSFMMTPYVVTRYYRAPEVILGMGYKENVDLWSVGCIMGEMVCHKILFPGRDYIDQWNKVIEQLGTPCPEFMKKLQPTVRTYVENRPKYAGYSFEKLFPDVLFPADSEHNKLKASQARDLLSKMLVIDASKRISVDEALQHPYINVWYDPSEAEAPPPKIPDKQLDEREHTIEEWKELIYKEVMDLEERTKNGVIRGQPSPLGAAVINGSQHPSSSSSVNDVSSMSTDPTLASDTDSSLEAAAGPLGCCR

As a reminder, the IC50 is the concentration that gives 50% inhibition. The low end stands for higher potency, the high end for lower potency. As to `N#Cc1csc(NC(=O)Cn2c(=O)ccc3cc(C(F)(F)F)ccc32)c1-c1ncco1` [N-(4-cyano-3-(oxazol-2-yl)thiophen-2-yl)-2-(2-oxo-6-(trifluoromethyl)quinolin-1(2H)-yl)acetamide], the IC50 against JNK1, on JNK2 and against JNK3 was under 0.1 µM each time.
In the case of `N#Cc1csc(NC(=O)CN2C(=O)CCc3ncccc32)c1-c1nccs1` [N-(4-cyano-3-(thiazol-2-yl)thiophen-2-yl)-2-(2-oxo-3,4-dihydro-1,5-naphthyridin-1(2H)-yl)acetamide], the IC50 against JNK1, at JNK2 and at JNK3 was under 0.1 µM each time.
For `N#Cc1csc(NC(=O)Cn2c(=O)ccc3cc(C(F)(F)F)ccc32)c1-c1nccs1` [N-(4-cyano-3-(thiazol-2-yl)thiophen-2-yl)-2-(2-oxo-6-(trifluoromethyl)quinolin-1(2H)-yl)acetamide], the IC50 against JNK1, against JNK2 and at JNK3 was under 0.1 µM in each case.
With `N#Cc1csc(NC(=O)Cn2c(=O)ccc3cc(C(F)(F)F)ccc32)c1-c1cscn1` [N-(4-cyano-3-(thiazol-4-yl)thiophen-2-yl)-2-(2-oxo-6-(trifluoromethyl)quinolin-1(2H)-yl)acetamide], the IC50 against JNK1, against JNK2 and on JNK3 was under 0.1 µM each time.
For `Cc1csc(NC(=O)CN2C(=O)CCc3ccccc32)c1-c1ncn[nH]1` [N-(4-methyl-3-(1H-1,2,4-triazol-5-yl)thiophen-2-yl)-2-(2-oxo-3,4-dihydroquinolin-1(2H)-yl)acetamide], the IC50 is under 0.1 µM against JNK1, under 10 µM on JNK2 and under 0.1 µM at JNK3.
As to `Cc1n[nH]c(-c2c(C)csc2NC(=O)CN2C(=O)CCc3ccccc32)n1` [N-(4-methyl-3-(3-methyl-1H-1,2,4-triazol-5-yl)thiophen-2-yl)-2-(2-oxo-3,4-dihydroquinolin-1(2H)-yl)acetamide], the IC50 against JNK1, against JNK2 and against JNK3 was under 0.1 µM each time.
